The target of one test is T1, Phospholipase A2 (PLA2) (Rattus norvegicus, UniProt P14423).
T1 construct: obtained by aggregation of purified rat platelets; from tissue; host or cells: rat platelets (enzyme obtained by aggregation)
T1 sequence (P14423 22-146): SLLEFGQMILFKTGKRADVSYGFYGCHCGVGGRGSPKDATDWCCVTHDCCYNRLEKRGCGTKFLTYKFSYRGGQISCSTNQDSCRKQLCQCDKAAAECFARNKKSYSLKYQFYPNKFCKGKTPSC
The experiment in a line: In vitro assay for inhibitors of Phospholipase A2 (PLA2) from rat platelets. It is filed as biochemical. From the text:
B. In Vitro Assay For Inhibitors of Phospholipase A2 Assayed at pH 7.0 (PLA2)
The PLA2 employed in this screen is obtained by aggregation of purified rat platelets. In the enzyme assay phosphatidylcholine having ^14 C-labeled palmitate residues at R1 and R2 is employed as substrate. PLA2 acts by cleaving the R2 fatty acid ester bond yielding free fatty acid and lysophosphatidyl choline as follows: [drawing 19]
Following completion of the reaction, the assay medium is acidified and extracted with hexane, which takes up unreacted substrate and free fatty acid product. The hexane extract is passed over a short silica column which retains 99% of the phosphatidyl choline. The ^14 C-labeled palmitic acid is not retained (90% recovery in eluate) and is collected directly in scintillation counting vials. The released palmitic acid is conveniently quantitated by liquid scintillation spectrometry.
The compounds were tested at 100 uM in a buffer containing 0.3 mM unlabeled phosphatidylcholine (PC), 20-30,000 cpm of ^14 C(CPC), […], 1 mM CaCl2 and 50 mM tris-HCl adjusted to pH 7.2 with 1N NaOH. […] The temperature of the buffer was maintained at a temperature of 37° C. The reaction was initiated by addition of the enzyme and it was terminated 30 minutes later by the addition of […] of 1N HCl.
Following acidification, the samples were extracted with 2 ml of 2-propanol and 2 ml of hexane, vortexed and allowed to stand until the phases separated. Free fatty acids (FFA) and some unreacted substrate were taken up in the isopropanol-saturated hexane. The hexane phase of the extraction mixture was transferred to a short silica gel column which retained […] but not the FFA. The column effluent was collected directly in scintillation vials. The columns were washed once with an additional 2 ml of hexane. The radio labeled FFA were quantitated by liquid scintillation spectrometry.

In another test the target is T2, 5-lipoxygenase (Rattus norvegicus, UniProt P12527).
T2 construct: A suspension of rat neutrophils in buffer; endogenous in cells; host or cells: rat neutrophils (PMN)
T2 sequence (P12527 1-673): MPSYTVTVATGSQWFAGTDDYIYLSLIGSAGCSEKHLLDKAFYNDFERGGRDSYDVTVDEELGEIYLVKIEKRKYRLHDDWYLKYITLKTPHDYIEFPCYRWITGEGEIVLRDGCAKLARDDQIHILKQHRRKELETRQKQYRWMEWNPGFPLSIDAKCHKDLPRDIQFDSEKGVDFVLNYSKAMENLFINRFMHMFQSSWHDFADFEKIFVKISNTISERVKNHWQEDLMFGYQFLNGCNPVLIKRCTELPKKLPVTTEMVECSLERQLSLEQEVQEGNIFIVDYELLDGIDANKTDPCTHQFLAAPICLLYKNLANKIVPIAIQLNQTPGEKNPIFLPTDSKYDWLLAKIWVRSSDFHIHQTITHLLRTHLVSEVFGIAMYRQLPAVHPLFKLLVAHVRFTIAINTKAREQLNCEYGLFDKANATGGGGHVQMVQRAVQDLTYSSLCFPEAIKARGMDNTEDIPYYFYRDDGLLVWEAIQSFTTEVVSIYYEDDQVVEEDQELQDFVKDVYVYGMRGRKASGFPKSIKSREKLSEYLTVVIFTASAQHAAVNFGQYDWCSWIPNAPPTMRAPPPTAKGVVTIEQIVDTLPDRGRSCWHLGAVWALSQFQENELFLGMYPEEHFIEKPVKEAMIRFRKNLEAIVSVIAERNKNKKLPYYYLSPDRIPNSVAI
The experiment in a line: Protocol for detecting inhibitors of the lipoxygenase pathway (5-HETE formation in rat neutrophils). Type of test: cell-based. How it is done:
Protocol for Detecting Inhibitors of the Lipoxygenase Pathway
A suspension of rat neutrophils in buffer is incubated for 3 minutes at 30° C. with [^14 C]-arachidonic acid (AA) and Calcium Ionophore A23187. Citric acid (2M) is used to quench the reaction. Following the addition of a trace amount of (^3 H)-5-HETE together with an excess of unlabeled 5-HETE to each tube, the mixture is extracted with chloroform/methanol. The organic layer is washed with dilute acid and an aliquot is transferred to glass tubes and dried. The residue is dissolved in a small volume of chloroform and an aliquot is spotted on silica get TLC sheets, which are developed with an ethyl acetate/isooctane/water acetic acid solvent system. The 5-HETE spots are visualized with iodine, cut out and placed in scintillation vials for counting. After adjusting for the extraction efficiency, the amount (pmole) of [^14 C]-5-HETE in each of the tubes is quantitated. The net pmoles of 5-HETE are obtained by subtracting the pmoles of 5-HETE in the tubes containing […]. The ability of the test compounds to modulate the activity of this enzyme is determined by a decrease or increase in the net amount of 5-HETE produced.

For test [1], the system named is leukotriene C4 -induced contraction of guinea pig peripheral strips. Nature of the test: SRS-A antagonists (SALTI): leukotriene C4-induced contraction of guinea pig peripheral lung strips. Here is the method:
Protocol for SRS-A (Slow-reacting Substance of Anaphylaxis Antagonists (SALTI)
Peripheral strips of guinea pig lungs are prepared and hung in tissue baths (Metro #ME-5505, 10 ml) according to the published procedure (Pro. Nat'l. Acad. Sci., U.S.A. Volume 77, pp. 4354-4358, 1980). The strips are thoroughly rinsed in Assay Buffer and then connected with surgical silk thread to the support rods from the tissue baths. The rods are adjusted in the baths and the strips connected to the pressure transducers (Grass FT 103 or Gould UC-3). The tissue baths are aerated with 95% oxygen 5% carbon dioxide and maintained at 37° C. The Assay Buffer has been made as follows: For each liter of buffer the following are added to approximately 800 ml of water distilled in glass--6.87 g. NaCl, 0.4 g. KCl, […]. NaHCO3, 0.14 g. NaH2 PO4.H2 O, 0.21 g. MgSO4.7H2 O, and 2.0 g. D-glucose. Then a solution of 0.368 g. CaCl2.2H2 O in 100 ml glass-distilled water is slowly added to the buffer. Sufficient water is added to adjust the volume to one liter, and the solution is aerated with 95% oxygen--5% carbon dioxide. Usually 10 liters of buffer are used for an experiment with 4 tissues.
After the tissues have been repeatedly washed and allowed to equilibrate in the tissue bath, they are challenged with 1 μM histamine. After maximum contractions have been obtained, the tissues are washed, and allowed to relax back to baseline tension. This histamine challenge procedure is repeated at least 1 to 2 more times to obtain a repeatable control response. The average response to 1 μM histamine for each tissue is used to normalize all other challenges.
Responses of each tissue to a predetermined concentration of leukotriene are then obtained. Usually test compounds are examined initially at 30 μM on resting tension of the tissues without any added agonist or antagonist to determine if the compound has any possible intrinsic activity. The tissues are washed, and the test compound is added again. Leukotriene is added after the desired pre-incubation time. The intrinsic activity of the compounds, and their effect on leukotriene-induced contractions are then recorded.
The concentration required for 50% inhibition of 0.2 μM leukotriene C4 -induced contraction of guinea pig peripheral strips for representative compounds of the present invention is shown in Table 3.

A further test concerns Phospholipase C (PLC). Nature of the test: In vitro assay for inhibitors of Phospholipase C (PLC) from rat platelets. It is filed as biochemical. Conditions: at level tested (300 u). From the text:
A. Protocol For In Vitro Assay For Inhibitors Of Phospholipase C (PLC)
The PLC employed in this screen is obtained by aggregation of purified rat platelets in the presence of CaCl2 and ADP. In the enzyme assay phosphatidylinositol having ^3 H -labeled arachidonate residues at R2 is employed as substrate. PLC acts by cleaving the phosphate ester bond yielding diglyceride as follows: [drawing 18]
Following completion of the reaction, the assay medium is acidified and extracted with hexane which takes up unreacted substrate and diglyceride. The hexane extract is passed over a short silica gel column which retains 99% of the phosphatidylinositol. The ^3 H-labeled diglyceride is not retained […]. The diglyceride is conveniently quantitated by liquid scintillation spectrometry.
The compounds were tested at 300 u in a buffer containing 0.06 mM unlabeled phosphatidylcholine (PC), 20-30,000 cpm of (CPC), 150 mM NaCl, 5 mM CaCl2 and 50 mM tris(hydroxymethyl)methylaminopropanesulfonic acid buffer, adjusted to pH 9.0 with 1N NaOH. The temperature of the buffer was maintained at a temperature of 37° C. The reaction was initiated by addition of the enzyme and it was terminated 10 minutes later by addition of 1 ml of 1N HCl.
Following acidification, the samples were extracted with 2 ml of isopropyl alcohol and 2 ml of hexane, vortexed and allowed to stand until the phases separate. […] and some unreacted substrate were taken up in the isopropanol-saturated hexane. The hexane phase of the extraction mixture was transferred to a short silica gel column which retains unreacted phosphatidylinositol, but not the 3H-diglyceride. The column effluent was collected directly in scintillation vials. The columns were washed once with additional 2 ml of hexane. The radiolabelled diglycerides were quantitated by liquid scintillation.

[2] abbreviates: read-out: PLA2, inhibition level reached at 30 μM (Ixx = 30 μM).
Setting [3] is: rat PMN, [14C]-arachidonic acid + A23187, 5-HETE, read-out: LOX, (RAT PMN) I50.
[4] abbreviates: Cavia porcellus, 0.2 μM leukotriene C4-induced contraction, read-out: SALTI, I50 μM.
[5] abbreviates: Cavia porcellus, leukotriene-induced contraction, read-out: SALTI I50 (Table 5).

The values below come from US4758586A, “Indolyl compounds and hyposensitivity use thereof” (USV Pharmaceutical Corp., priority 1986, dated 1988).

Where two headings read alike, the source gives them in different places.

In the case of `CCOC(=O)C=CC=Cc1cn(Cc2ccccc2)c2ccc(OCc3ccccc3)cc12` [Example 4, Ethyl 5-(1-Benzyl-5-Benzyloxyindol-3-yl)-2,4-Pentadienoate], the inhibition at 30 µM on Phospholipase A2 (PLA2) (setting [2]) worked out at 37%. In the case of `CCOC(=O)c1ccc(NC(=O)C=CC=Cc2cn(Cc3ccccc3)c3ccccc23)cc1` [Example 3, N-(4-Carbethoxyphenyl)-5-(1-benzylindol-3-yl)-2,4-Pentadienamide], the IC50 on 5-lipoxygenase (setting [3]) amounted to 2 µM.

For `CCOC(=O)C=CC=Cc1cc2cc(OC)ccc2n1C(=O)c1ccc(Cl)cc1` [Example 17, Ethyl 5-(1-p-chlorobenzoyl-5-methoxyindol-2-yl)-2,4-Pentadienoate], the IC50 on 5-lipoxygenase (setting [3]) turned out to be 10 µM. In the case of `O=C(O)C=CC=Cc1cn(Cc2ccccc2)c2ccccc12` [Example 2, 5-(1-Benzylindol-3-yl)-2,4-Pentadienoic Acid], the IC50 on 5-lipoxygenase (setting [3]) stood at 2 µM; at Phospholipase A2 (PLA2), 16 µM.

In the case of `CCOC(=O)C=Cc1cn(Cc2ccccc2)c2ccccc12` [Ethyl-B-(benzylindol-3-yl)acrylate, reference compound], the “SALTI activity class (Table 5)” value in test [1] (at level tested (initially 30 μM)) is listed as “I”.

Consider `O=C(O)C=Cc1cn(Cc2ccccc2)c2ccccc12` [B-(1-Benzylindol-3-yl)acrylic acid], for which the inhibition at 30 µM on Phospholipase A2 (PLA2) (read-out: PLA2, inhibition level reached at 30 μM (printed I44 = 30 μM, Table 5)) turned out to be 44%. Regarding `CCOC(=O)C=CC=Cc1c[nH]c2ccccc12` [Example 10, Ethyl 5-(indol-3-yl)-2,4-Pentadienoate], the values for the IC50 (on 5-lipoxygenase (setting [3]); in test [1] (setting [4])) were 12 µM and 2 µM, respectively. Consider `CCOC(=O)C=CC=Cc1cc2cc(OC)ccc2[nH]1` [Example 16, Ethyl 5-(5-methoxyindol-2-yl)-2,4-Pentadienoate], for which the IC50 on 5-lipoxygenase (setting [3]) amounted to 10 µM. Moreover, the inhibition at 30 µM in test [1] (Cavia porcellus, at 30 μM, 0.2 μM leukotriene C4-induced contraction, read-out: SALTI, % I at 30 μM) stood at 53%. For `COc1ccc2c(c1)c(C=CC=CC(=O)O)cn2Cc1ccccc1` [Example 7, 5-(1-Benzyl-5-methoxyindol-3-yl)-2,4-Pentadienoic Acid], the IC50 on 5-lipoxygenase (setting [3]) was found to be 6 µM; in test [1] (setting [4]), 20 µM. The inhibition at 30 µM at Phospholipase A2 (PLA2) (setting [2]) is 42%. As for `Cc1c(C=CC(=O)O)c2ccccc2n1Cc1ccccc1` [B-(1-Benzyl-2-methyl-indol-3-yl)acrylic acid], in test [1] (setting [5]), the IC50 was found to be 20 µM. With `CCOC(=O)C=CC=Cc1cn(Cc2ccccc2)c2ccccc12` [Example 1, Ethyl 5-(1-Benzylindol-3-yl)-2,4-Pentadienoate], at 5-lipoxygenase (setting [3]), the IC50 amounted to 10 µM. With `CCOC(=O)C=CC=Cc1c(C)n(Cc2ccccc2)c2ccccc12` [Example 11, Ethyl 5-(1-Benzyl-2-methylindol-3yl)-2,4-Pentadienoate], the IC50 on 5-lipoxygenase (setting [3]) came to 15 µM.

For the molecule `CCOC(=O)C=Cc1c(C)n(Cc2ccccc2)c2ccccc12` [Ethyl B-(1-benzyl-2-methyl-indol-3-yl)acrylate], the IC50 on 5-lipoxygenase (Formula III, n=1 compounds, read-out: LOX I50 (Table 5)) stood at 1 µM. For the same molecule, the “PLC activity class (Table 5)” value in the test with Phospholipase C (PLC) is on record as “I”. As to `OCC=Cc1cn(Cc2ccccc2)c2ccccc12` [Example 13, 1-Benzyl-3-(3-Hydroxy-1-Propen-1-yl)Indole], the IC50 at 5-lipoxygenase (setting [3]) is 7.5 µM.

`CCOC(=O)C=Cc1cc2ccccc2[nH]1` [Ethyl B-(indol-2-yl)acrylate]: the IC50 in test [1] (setting [5]) was 30 µM. For the same molecule, in the test on Phospholipase C (PLC), the “PLC activity class (Table 5)” value is on record as “I”. As to `CCOC(=O)C=CC=Cc1cn(Cc2ccccc2)c2ccc(OC)cc12` [Example 6, Ethyl 5-(1-Benzyl-5-Methoxyindol-3-yl)-2,4-Pentadienoate], the IC50 on 5-lipoxygenase (setting [3]) amounted to 4 µM. For `O=C(O)C=CC=Cc1cn(Cc2ccccc2)c2ccc(OCc3ccccc3)cc12` [Example 5, 5-(1-Benzyl-5-Benzyloxyindol-3-yl)-2,4-Pentadienoic Acid], at 5-lipoxygenase (setting [3]), the IC50 was determined as 2 µM.
